Structures can show the parent of a compound that is named as a salt. Where two headings read alike, the source gives them in different places.
Assays:
E. coli (Swine) = test: Microbiological assay, MIC and MBC, E. coli (Swine); format: cell-based; conditions: combinations 1:1 by weight
[1] = tested on: Pseudomonas strains of mastitic origin; conditions: cited from earlier work
Salmonella typhi-murium = test: Microbiological assay, MIC and MBC, Salmonella typhi-murium; format: cell-based; conditions: combinations 1:1 by weight
Staphylococcus aureus = test: Microbiological assay, minimal inhibiting (MIC) and minimal bactericide (MBC) concentrations, Staphylococcus aureus; conditions: combinations 1:1 by weight
E. coli (Calf) = test: Microbiological assay, MIC and MBC, E. coli (Calf); conditions: combinations 1:1 by weight
[2] = in vivo; cited from earlier work
Pasteurella multocida = test: Microbiological assay, MIC and MBC, Pasteurella multocida; conditions: combinations 1:1 by weight
[3] = tested on: some Gram positive bacteria, Mycoplasma and the most important Treponema; conditions: cited from earlier work
Treponema hyodysenteriae = conditions: orally applied; swine dysentery; British patent specification No. 2,072,012; cited from earlier work
Mycoplasma hyopneumoniae = conditions: orally applied; enzootic pneumonia; Taylor, IPVS Congress 1982; cited from earlier work
[4] = Escherichia coli, read-out: MBC
[5] = Escherichia coli, read-out: MIC

Compound: CN[C@@H]1[C@@H](O[C@H]2O[C@H](CO)[C@@H](N)[C@H](O)[C@H]2O)OC2C[C@@H](N)[C@@H](O[C@H]3[C@H](O)[C@@H](O)[C@H](N)C[C@@H]3N)OC2[C@@H]1O (stereo partly shown) [Apramycin]
- MBC (E. coli (Swine); [4]): 25 µg/mL
- MIC (E. coli (Swine); [5]): 25 µg/mL
- effect against Pseudomonas strains of mastitic origin [1]: particularly strong effect

Compound: NC[C@H]1O[C@H](O[C@H]2[C@H](O)[C@@H](O[C@H]3O[C@H](CO)[C@@H](O)[C@H](N)[C@H]3O)[C@H](N)C[C@@H]2N)[C@H](O)[C@@H](O)[C@@H]1O [Kanamycin]
- MBC (E. coli (Swine); [4]): 25 µg/mL
- MIC (E. coli (Swine); [5]): 10 µg/mL
- MBC (Salmonella typhi-murium; Salmonella enterica, read-out: MBC): 50 µg/mL
- MIC (Salmonella typhi-murium; Salmonella enterica, read-out: MIC): 25 µg/mL

Compound: NC[C@@H]1O[C@H](O[C@H]2[C@@H](O)[C@H](O[C@@H]3[C@@H](O)[C@H](N)C[C@H](N)[C@H]3O[C@H]3O[C@H](CN)[C@@H](O)[C@H](O)[C@H]3N)O[C@@H]2CO)[C@H](N)[C@@H](O)[C@@H]1O [Neomycin]
- MBC (E. coli (Swine)): 10 µg/mL
- MIC (E. coli (Swine)): 5 µg/mL
- MBC (Staphylococcus aureus): 25 µg/mL
- MIC (Staphylococcus aureus): 10 µg/mL
- MBC (Salmonella typhi-murium): 25 µg/mL
- MIC (Salmonella typhi-murium): 10 µg/mL
- MBC (E. coli (Calf)): > 200 µg/mL
- MIC (E. coli (Calf)): > 200 µg/mL
- nephrotoxic properties [2]: may cause azotaemia and oliguria
- MBC (Pasteurella multocida): 5 µg/mL
- MIC (Pasteurella multocida): 1 µg/mL

Compound: [H]/N=C(/N)N[C@H]1[C@H](O)[C@@H](O)[C@H](O[C@@H]2O[C@@H](C)[C@](O)(C=O)[C@H]2O[C@@H]2O[C@@H](CO)[C@H](O)[C@@H](O)[C@@H]2NC)[C@@H](N/C(N)=N\[H])[C@@H]1O [Streptomycin]
- MBC (E. coli (Swine); [4]): > 200 µg/mL
- MIC (E. coli (Swine); [5]): 100 µg/mL

Compound: C=C[C@]1(C)C[C@@H](OC(=O)CSCCN(CC)CC)[C@]2(C)[C@H](C)CC[C@]3(CCC(=O)[C@H]32)[C@@H](C)[C@@H]1O [Tiamulin, 14-desoxy-14-[(2-diethyl-amino-ethyl)-mercapto-acetoxy]-mutilin hydrogen fumarate]
- MBC (E. coli (Swine); [4]): 100 µg/mL
- MIC (E. coli (Swine); [5]): 50 µg/mL
- effectiveness against some Gram positive bacteria, Mycoplasma and Treponema [3]: effective against some Gram positive bacteria, Mycoplasma and the most important Treponema
- effectiveness against Treponema hyodysenteriae (Treponema hyodysenteriae): extremely effective
- effectiveness against Mycoplasma hyopneumoniae (Mycoplasma hyopneumoniae): extremely effective

Compound: NC[C@H]1O[C@H](O[C@H]2[C@H](O)[C@@H](O[C@H]3O[C@H](CO)[C@@H](O)[C@H](N)[C@H]3O)[C@H](N)C[C@@H]2N)[C@H](N)C[C@@H]1O [Tobramycin]
- MBC (E. coli (Swine); [4]): 5 µg/mL
- MIC (E. coli (Swine); [5]): 1 µg/mL

Compound: Gentamycin
- MBC (E. coli (Swine)): 5 µg/mL
- MIC (E. coli (Swine)): 5 µg/mL
- MBC (Staphylococcus aureus): 5 µg/mL
- MIC (Staphylococcus aureus): 0.5 µg/mL
- MBC (Salmonella typhi-murium): 5 µg/mL
- MIC (Salmonella typhi-murium): 5 µg/mL
- MBC (E. coli (Calf)): 5 µg/mL
- MIC (E. coli (Calf)): 5 µg/mL
- MBC (Pasteurella multocida): 1 µg/mL
- MIC (Pasteurella multocida): < 0.5 µg/mL
